Numbered stars: 1 amine (or outer) side, 2 acyl side, 3 side chain; on linkers, the order of the positions; unused ones are H or OH. Square brackets hold non-standard residues; d marks the D form. Side chains are listed from the residue outwards. Peptide text beside a SMILES is read from it. * marks the point of attachment. C20 diacid = O=C(O)CCCCCCCCCCCCCCCCCCC(=O)*; C18 diacid = O=C(O)CCCCCCCCCCCCCCCCC(=O)*; γGlu = O=C(O)[C@H](CCC(=O)[*:2])N[*:1]; αMeY = C[C@](N)(Cc1ccc(O)cc1)C(=O)O; αMeL = CC(C)C[C@](C)(N)C(=O)O; Orn = NCCC[C@H](N)C(=O)O; AEEA = NCCOCCOCC(=O)O; Aib = CC(C)(N)C(=O)O
Columns and labels:
[1] = target: T1, gastric inhibitory peptide receptor (GIPR) (Homo sapiens, UniProt P48546); assay: cAMP pharmacological functional assay in presence of casein, hGIPR; assay type: cell-based; settings: HEK293 cells expressing hGIPR, 0.1% Casein, geometric mean; read-out: hGIPR cAMP Rel EC50 nM (SEM, n)
T1 sequence (P48546 22-466): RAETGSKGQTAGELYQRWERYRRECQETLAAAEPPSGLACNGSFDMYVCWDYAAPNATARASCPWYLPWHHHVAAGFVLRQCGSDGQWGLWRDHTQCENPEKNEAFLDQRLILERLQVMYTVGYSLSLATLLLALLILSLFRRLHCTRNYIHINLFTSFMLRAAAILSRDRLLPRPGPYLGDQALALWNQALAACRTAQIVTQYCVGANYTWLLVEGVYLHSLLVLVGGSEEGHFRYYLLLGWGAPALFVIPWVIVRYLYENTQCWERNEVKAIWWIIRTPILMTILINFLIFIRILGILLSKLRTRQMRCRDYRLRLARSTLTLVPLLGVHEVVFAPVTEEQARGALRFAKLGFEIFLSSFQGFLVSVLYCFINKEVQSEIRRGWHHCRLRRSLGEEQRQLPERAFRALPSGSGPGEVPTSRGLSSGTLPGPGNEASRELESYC

[2] = target: human GLP-1 receptor (GLP-1R) (Homo sapiens, UniProt P43220); assay: cAMP pharmacological functional assay in presence of casein, hGLP-1R; assay type: cell-based; settings: HEK293 cells expressing hGLP-1R, 0.1% Casein, geometric mean; read-out: hGLP1R cAMP Rel EC50 nM (SEM, n)
human GLP-1R [3] = target: T2, human GLP-1R (Homo sapiens, UniProt P43220); assay: GLP-1R HEK293 cell membrane [35S]GTPγS binding assay; assay type: biochemical; design: expressed in transfected cells; host or cells: HEK293 cells expressing human GLP-1R; membranes; settings: HEK293 cell membranes expressing human GLP-1R, [35S]GTPγS binding; read-out: hGLP1R GTPgS Rel EC50 nM (SEM, n)
Procedure, shortened: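 Membranes from HEK293 cells expressing the receptor incubated with peptide and […] [35S]GTPγS in HEPES pH 7.4 buffer with NaCl, MgCl2, saponin and BSA, 30 min at room temperature. Gαs-bound label captured by anti-Gαs antibody/SPA beads and counted; EC50 from four-parameter logistic fit.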

human GLP-1R [4] = target: T2, human GLP-1R; assay: GLP-1R CHO cell β-arrestin recruitment assay; assay type: cell-based; design: host or cells: CHO-K1 PathHunter cells, assay-ready frozen; settings: for EC50: CHO-K1 cells, PathHunter β-arrestin-2 recruitment, 0.1% casein, read-out: hGLP1R B-Arrestin2 Rel EC50 uM (SEM, n); for hGLP1R B-Arrestin2 % Top: normalized to GLP-1 maximum control
Procedure, shortened: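 PathHunter CHO-K1 cells with ProLink-tagged human GLP-1R and enzyme-acceptor-tagged β-arrestin-2 treated with serially diluted peptides in assay buffer containing 0.1% hydrolyzed casein, 90 min at 37 °C.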

Chain of human GLP-1 receptor (GLP-1R) (P43220 24-463): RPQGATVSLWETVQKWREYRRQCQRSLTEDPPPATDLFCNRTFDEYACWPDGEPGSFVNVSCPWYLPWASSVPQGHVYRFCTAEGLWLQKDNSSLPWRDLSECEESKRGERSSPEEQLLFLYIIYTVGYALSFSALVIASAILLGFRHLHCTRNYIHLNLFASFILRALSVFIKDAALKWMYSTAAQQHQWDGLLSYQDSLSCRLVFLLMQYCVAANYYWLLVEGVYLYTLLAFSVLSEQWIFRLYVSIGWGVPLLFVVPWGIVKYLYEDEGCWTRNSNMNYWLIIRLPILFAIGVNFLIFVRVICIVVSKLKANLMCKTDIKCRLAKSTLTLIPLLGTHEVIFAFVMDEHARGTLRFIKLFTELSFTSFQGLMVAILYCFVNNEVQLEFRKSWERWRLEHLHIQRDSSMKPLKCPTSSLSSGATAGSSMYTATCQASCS
T2 sequence (P43220 24-463): as above

Structure (SMILES)	EC50 [1] [nM]	EC50 [2] [nM]	EC50 (human GLP-1R [3]) [nM]	EC50 (human GLP-1R [4]) [µM]	hGLP1R B-Arrestin2 % Top (human GLP-1R [4]) [%]
CC[C@H](C)[C@H](NC(=O)[C@H](CC(C)C)NC(=O)[C@H](Cc1ccc(O)cc1)NC(=O)[C@H](CCC(=O)O)NC(=O)[C@@H](NC(=O)[C@H](Cc1ccccc1)NC(=O)[C@H](CCC(=O)O)NC(=O)C(C)(C)NC(=O)[C@H](CCC(N)=O)NC(=O)[C@H](C)NC(=O)[C@H](CCCCNC(=O)COCCOCCNC(=O)COCCOCCNC(=O)CC[C@H](NC(=O)CCCCCCCCCCCCCCCCC(=O)O)C(=O)O)NC(=O)[C@H](CCCN)NC(=O)[C@H](CC(=O)O)NC(=O)[C@H](CC(C)C)NC(=O)[C@](C)(CC(C)C)NC(=O)[C@@H](NC(=O)[C@H](CO)NC(=O)[C@H](Cc1ccc(O)cc1)NC(=O)[C@H](CC(=O)O)NC(=O)[C@H](CO)NC(=O)[C@@H](NC(=O)[C@H](Cc1ccccc1)NC(=O)[C@@H](NC(=O)CNC(=O)[C@H](CCC(=O)O)NC(=O)C(C)(C)NC(=O)[C@H](N)Cc1ccc(O)cc1)[C@@H](C)O)[C@@H](C)O)[C@@H](C)CC)[C@@H](C)CC)C(=O)N[C@@H](C)C(=O)NCC(=O)NCC(=O)N1CCC[C@H]1C(=O)N[C@@H](CO)C(=O)N[C@@H](CO)C(=O)NCC(=O)N[C@@H](C)C(=O)N1CCC[C@H]1C(=O)N1CCC[C@H]1C(=O)N1CCC[C@H]1C(=O)N[C@@H](CO)C(N)=O [Example 368] (H-[dY][Aib]EGTFTSDYSI[αMeL]LD[Orn]K([AEEA-AEEA-γGlu-C18 diacid])AQ[Aib]EFIEYLIAGGPSSGAPPPS-NH2)	0.0757	0.108	0.495	0.0479	21.3
CC[C@H](C)[C@H](NC(=O)[C@H](CC(C)C)NC(=O)[C@H](Cc1ccc(O)cc1)NC(=O)[C@H](CCC(=O)O)NC(=O)[C@@H](NC(=O)[C@H](Cc1ccccc1)NC(=O)[C@H](CC(=O)O)NC(=O)C(C)(C)NC(=O)[C@H](CCC(N)=O)NC(=O)[C@H](C)NC(=O)[C@H](CCCCNC(=O)COCCOCCNC(=O)COCCOCCNC(=O)CC[C@H](NC(=O)CCCCCCCCCCCCCCCCCCC(=O)O)C(=O)O)NC(=O)[C@H](CCCN)NC(=O)[C@H](CC(=O)O)NC(=O)[C@H](CC(C)C)NC(=O)[C@](C)(CC(C)C)NC(=O)[C@@H](NC(=O)[C@H](CO)NC(=O)[C@H](Cc1ccc(O)cc1)NC(=O)[C@H](CC(=O)O)NC(=O)[C@H](CO)NC(=O)[C@@H](NC(=O)[C@H](Cc1ccccc1)NC(=O)[C@@H](NC(=O)CNC(=O)[C@H](CCC(=O)O)NC(=O)C(C)(C)NC(=O)[C@H](N)Cc1ccc(O)cc1)[C@@H](C)O)[C@@H](C)O)[C@@H](C)CC)[C@@H](C)CC)C(=O)N[C@@H](C)C(=O)NCC(=O)NCC(=O)N1CCC[C@H]1C(=O)N[C@@H](CO)C(=O)N[C@@H](CO)C(=O)NCC(=O)N[C@@H](C)C(=O)N1CCC[C@H]1C(=O)N1CCC[C@H]1C(=O)N1CCC[C@H]1C(=O)N[C@@H](CO)C(N)=O [Example 369] (H-[dY][Aib]EGTFTSDYSI[αMeL]LD[Orn]K([AEEA-AEEA-γGlu-C20 diacid])AQ[Aib]DFIEYLIAGGPSSGAPPPS-NH2; N-terminus assumed)	0.166	0.101	0.381	0.0414	19.9
CC[C@H](C)[C@H](NC(=O)[C@H](CC(C)C)NC(=O)[C@H](Cc1ccc(O)cc1)NC(=O)[C@H](CCC(=O)O)NC(=O)[C@@H](NC(=O)[C@H](Cc1ccccc1)NC(=O)[C@H](CCC(=O)O)NC(=O)C(C)(C)NC(=O)[C@H](CCC(N)=O)NC(=O)[C@H](C)NC(=O)[C@H](CCCCNC(=O)COCCOCCNC(=O)COCCOCCNC(=O)CC[C@H](NC(=O)CCCCCCCCCCCCCCCCCCC(=O)O)C(=O)O)NC(=O)[C@H](CCCN)NC(=O)[C@H](CC(=O)O)NC(=O)[C@H](CC(C)C)NC(=O)[C@](C)(CC(C)C)NC(=O)[C@@H](NC(=O)[C@H](CO)NC(=O)[C@H](Cc1ccc(O)cc1)NC(=O)[C@H](CC(=O)O)NC(=O)[C@H](CO)NC(=O)[C@@H](NC(=O)[C@H](Cc1ccccc1)NC(=O)[C@@H](NC(=O)CNC(=O)[C@H](CCC(=O)O)NC(=O)C(C)(C)NC(=O)[C@H](N)Cc1ccc(O)cc1)[C@@H](C)O)[C@@H](C)O)[C@@H](C)CC)[C@@H](C)CC)C(=O)N[C@@H](C)C(=O)NCC(=O)NCC(=O)N1CCC[C@H]1C(=O)N[C@@H](CO)C(=O)N[C@@H](CO)C(=O)NCC(N)=O [Example 370] (H-[dY][Aib]EGTFTSDYSI[αMeL]LD[Orn]K([AEEA-AEEA-γGlu-C20 diacid])AQ[Aib]EFIEYLIAGGPSSG-NH2)	0.117	0.186	0.428	0.0099	23.0
CC[C@H](C)[C@H](NC(=O)[C@H](CC(C)C)NC(=O)[C@H](Cc1ccc(O)cc1)NC(=O)[C@H](CCC(=O)O)NC(=O)[C@@H](NC(=O)[C@H](Cc1ccccc1)NC(=O)[C@H](CCC(=O)O)NC(=O)C(C)(C)NC(=O)[C@H](CCC(N)=O)NC(=O)[C@H](C)NC(=O)[C@H](CCCCNC(=O)COCCOCCNC(=O)CC[C@H](NC(=O)CCCCCCCCCCCCCCCCCCC(=O)O)C(=O)O)NC(=O)[C@H](CCCN)NC(=O)[C@H](CC(=O)O)NC(=O)[C@H](CC(C)C)NC(=O)[C@](C)(CC(C)C)NC(=O)[C@@H](NC(=O)[C@H](CO)NC(=O)[C@H](Cc1ccc(O)cc1)NC(=O)[C@H](CC(=O)O)NC(=O)[C@H](CO)NC(=O)[C@@H](NC(=O)[C@H](Cc1ccccc1)NC(=O)[C@@H](NC(=O)CNC(=O)[C@H](CCC(=O)O)NC(=O)C(C)(C)NC(=O)[C@H](N)Cc1ccc(O)cc1)[C@@H](C)O)[C@@H](C)O)[C@@H](C)CC)[C@@H](C)CC)C(=O)N[C@@H](C)C(=O)NCC(=O)NCC(=O)N1CCC[C@H]1C(=O)N[C@@H](CO)C(=O)N[C@@H](CO)C(=O)NCC(=O)N[C@@H](C)C(=O)N1CCC[C@H]1C(=O)N1CCC[C@H]1C(=O)N1CCC[C@H]1C(=O)N[C@@H](CO)C(N)=O [Example 371] (H-[dY][Aib]EGTFTSDYSI[αMeL]LD[Orn]K([AEEA-γGlu-C20 diacid])AQ[Aib]EFIEYLIAGGPSSGAPPPS-NH2)	0.135	0.132	0.27	0.0142	21.7
CC[C@H](C)[C@H](NC(=O)[C@H](CC(C)C)NC(=O)[C@](C)(Cc1ccc(O)cc1)NC(=O)[C@H](CCC(=O)O)NC(=O)[C@@H](NC(=O)[C@H](Cc1ccccc1)NC(=O)[C@H](CCC(=O)O)NC(=O)C(C)(C)NC(=O)[C@H](CCC(N)=O)NC(=O)[C@H](C)NC(=O)[C@H](CCCCNC(=O)COCCOCCNC(=O)CC[C@H](NC(=O)CCCCCCCCCCCCCCCCCCC(=O)O)C(=O)O)NC(=O)[C@H](CCCCN)NC(=O)[C@H](CC(=O)O)NC(=O)[C@H](CC(C)C)NC(=O)[C@](C)(CC(C)C)NC(=O)[C@@H](NC(=O)[C@H](CO)NC(=O)[C@H](Cc1ccc(O)cc1)NC(=O)[C@H](CC(=O)O)NC(=O)[C@H](CO)NC(=O)[C@@H](NC(=O)[C@H](Cc1ccccc1)NC(=O)[C@@H](NC(=O)CNC(=O)[C@H](CCC(=O)O)NC(=O)C(C)(C)NC(=O)[C@H](N)Cc1ccc(O)cc1)[C@@H](C)O)[C@@H](C)O)[C@@H](C)CC)[C@@H](C)CC)C(=O)N[C@@H](C)C(=O)NCC(=O)NCC(=O)N1CCC[C@H]1C(=O)N[C@@H](CO)C(=O)N[C@@H](CO)C(=O)NCC(=O)N[C@@H](C)C(=O)N1CCC[C@H]1C(=O)N1CCC[C@H]1C(=O)N1CCC[C@H]1C(=O)N[C@@H](CO)C(N)=O [Example 372] (H-[dY][Aib]EGTFTSDYSI[αMeL]LDKK([AEEA-γGlu-C20 diacid])AQ[Aib]EFIE[αMeY]LIAGGPSSGAPPPS-NH2)	0.0781	0.365	0.379	0.00981	32.9

Reference: patent publication US12252524B2, “GIP/GLP1 co-agonist compounds” (Eli Lilly and Company, priority 2018, dated 2025)
